Test results from patent publication US8138167B2, “Methods for treating lung cancers” (Oncotherapy Science, Inc., priority 2006, dated 2012).
Like-named read-outs stand apart in the source and are kept apart here.

Legend:
lung cancer = conditions: cited from earlier work
[1] = test system: advanced non-small-cell lung cancer; conditions: Japanese patients with advanced NSCLC treated since approval; cited from earlier work
PC-9 cells = conditions: gefitinib-sensitive, amphiregulin-nonexpressing NSCLC line PC-9; upon autocrine secretion of amphiregulin; cited from earlier work
[2] = test system: progressive non-small-cell lung cancer; assay: gefitinib therapy (250 mg/day) of 50 patients with progressive non-small-cell lung cancer, overall evaluation of tumor response
[3] = 50 progressive NSCLC patients, gefitinib 250 mg/day, evaluation after four months
[4] = of 50 patients after gefitinib therapy

COc1cc2ncnc(Nc3ccc(F)c(Cl)c3)c2cc1OCCCN1CCOCC1 [gefitinib, N-(3-chloro-4-fluorophenyl)-7-methoxy-6-(3-morpholinopropoxy)quinazolin-4-amine]
median survival time (lung cancer; adenocarcinoma patients, gefitinib arm (placebo […])): 6.3 months
median survival time (lung cancer; all parent populations, gefitinib arm (placebo 5.1)): 5.6 months
patients showing no improvement in symptoms [1]: 60%
antitumor activity of gefitinib on PC-9 cells (PC-9 cells): dramatically reduced
disease control rate (CR+PR+SD/CR+PR+SD+PD) [2, 3]: 40.0%
tumor response rate (CR+PR/CR+PR+SD+PD) [2, 3]: 16.0%
patients classified as CR [2, 4]: none
patients classified as PD [2, 4]: 30 patients
patients classified as PR [2, 4]: eight
patients classified as SD [2, 4]: 12 patients
